Experimental data taken from patent US20250281628A1, “COMPOSITE NANOPARTICULATE MINERALIZED COLLAGEN GLYCOSAMINOGLYCAN MATERIALS WITH TIME RELEASE ANTI-RESORPTIVE FACTORS” (The Regents of the University of California, priority 2021, published 2025).

Experiments:
[1] = test system: MEK1/ERK1/2 signaling pathway; assay: Inhibitor study with PD98059, western blot of hMSCs on scaffolds; type: cell-based, human; conditions: 50 μM
Procedure: (§1) Osteogenic differentiation of hMSCs on Col-GAG and MC-GAG: 3×10^5 hMSCs were seeded onto 8 mm discs of CG-GAG and MC-GAG scaffolds in proliferation media. 24 h after seeding, media was switched to osteogenic differentiation media consisting of 10 mM β-glycerophosphate, 50 μg/mL ascorbic acid, and 0.1 μM dexamethasone. For inhibitor studies, scaffolds were treated or untreated with dorsomorphin homologue 1 (DMH1; Sigma-Aldrich) or PD98059 (Cell Signaling Technologies, Beverly, MA) separately, all at a concentration of 50 μM. Fresh DMH1 and PD98059 were added to each media change every 3 days.
(§2) Western blot: Lysates were prepared from scaffolds at 0, 4, 14, and 24 days of culture using SDS sample buffer and equal amounts were subjected to 4-20% SDS-PAGE (Bio-Rad, Hercules, CA). Western blot analysis was carried out with antibodies against OPG, RANKL, phosphorylated small mothers against decapentaplegic 1/5 (p-Smad1/5), total Smad5, phosphorylated extracellular regulated kinase 1/2 (p-ERK1/2), total ERK1/2, and […] followed by 1:4000 dilutions of HRP-conjugated IgG antibodies (Bio-Rad, Hercules, CA) and an enhanced chemiluminescent substrate (Thermo Scientific, Rockford, IL). For detection of p-Smad1/5 and total Smad5, 10 μg of lysate was loaded per lane. For detection of OPG, RANKL, p-ERK1/2, total ERK1/2, and β-actin, 20 μg of lysate was loaded per lane. All antibodies were obtained from Cell Signaling Technologies (Beverly, MA) with the exception of RANKL, OPG, and β-actin antibodies which were obtained from Santa Cruz Biotechnology (Santa Cruz, CA). Imaging analysis was carried out using ImageJ (NIH, Bethesda, MD).
(§3) To characterize the mechanism responsible for differential OPG expression osteogenically differentiated hMSCs cultured on MC-GAG versus Col-GAG, DMH1, and PD98059 small molecule inhibitors were utilized for the canonical BMP receptor and MEK1/ERK1/2 signaling pathways, respectively (FIG. 11). […] Due to the massive upregulation of Smad1/5 phosphorylation in MC-GAG, a smaller inhibition was noted compared to Col-GAG. […] In contrast, OPG expression was increased in the presence of DMH1 on both Col-GAG and MC-GAG, particularly at the day 14 timepoint.

[2] = test system: canonical BMP receptor signaling pathway; assay: Inhibitor study with DMH1, western blot of hMSCs on scaffolds; type: cell-based, human; conditions: 50 μM
Procedure: as §1, §2, §3

Structure (SMILES) | phosphorylated Smad1/5, total Smad5, total ERK1/2, or actin [1] | phosphorylated ERK1/2 ([1]; all timepoints, either material) | OPG protein expression ([1]; hMSCs on Col-GAG) | RANKL expression ([1]; hMSCs on Col-GAG) | OPG protein expression ([1]; hMSCs on MC-GAG, all timepoints) | RANKL expression ([1]; hMSCs on MC-GAG, particularly day 24) | phosphorylated ERK1/2 ([2]; MC-GAG at day 4) | OPG expression ([2]; both Col-GAG and MC-GAG, particularly day 14) | total Smad5, total ERK1/2, RANKL, or actin ([2]; hMSCs on Col-GAG and MC-GAG) | phosphorylation of Smad1/5 ([2]; hMSCs on either material)
COc1cccc(-c2cc(=O)c3ccccc3o2)c1N [PD98059] | no effects | decreased | no differences were detected | no differences were detected | decreased | downregulated | – | – | – | –
CC(C)Oc1ccc(-c2cnc3c(-c4ccnc5ccccc45)cnn3c2)cc1 [DMH1, dorsomorphin homologue 1] | – | – | – | – | – | – | small elevation | increased | No differences | partially decreased at all timepoints
